# Measurements: patent publication US20040110687A1, “Methods and compositions for treating gastrointestinal toxicity induced by cytoablative therapy” (priority 2002, published 2004)
# Like-named read-outs stand apart in the source and are kept apart here. Marks after values point to notes of the source that are not given here.
# Tests used:
# [1] = test system: normal, non-tumor bearing mice; format: in vivo
# Experimental: A second study was performed to determine whether RDP58 also limits 5-FU induced diarrhea. Normal, non-tumor bearing mice were treated with 100 mg/kg 5-FU daily for two consecutive days and were concurrently given 10 mg/kg RDP58 orally or water only. […] All ten animals in the control group had diarrhea compared to only three of ten RDP58 treated animals.
# tumor bearing mice = test: MTD vs 2xMTD CPT-11 with or without RDP58: mortality and tumor response
# [2] = as above; settings: mouse, in vivo
# [3] = test system: normal, non-tumor bearing mice; test: CPT-11-induced gastrointestinal toxicity and mortality, RDP58 dose finding study
# Experimental: In a dose finding study, normal, non-tumor bearing mice were injected intraperitoneally with 200 mg/kg CPT-11 once a day for three consecutive days and concurrently given 0, 2.5, 5.0 or 10 mg/kg RDP58 orally.
# [4] = test system: mice bearing CT-26 tumors; test: CPT-11 efficacy and treatment related mortality with or without RDP58 in tumor model; format: in vivo; settings: for reduction in tumor weight: CPT-11 100 mg/kg qdx3, three regimens
# Experimental: To determine whether RDP58 altered the efficacy of CPT-11 therapy, mice bearing CT-26 tumors were treated with three regimens of CPT-11 at 100 mg/kg qdx3 and given 5.0 mg/kg RDP58 orally.
# [5] = CPT-11 dose escalation (LD50) with or without oral RDP58; format: in vivo, mice; settings: mouse, in vivo, intraperitoneal; without RDP58, as restated in Example 7
# Experimental: (§1) To determine whether concurrent oral RDP58 treatment can increase the maximum dose of CPT-11 without a concomitant increase in mortality, normal non-tumor bearing mice were injected qdx3 with 0, 100, 200, 300, or 400 mg/kg CPT-11 injected i.p. qdx3 on Days 0, 1 and 2. RDP58 was given orally at 10 mg/kg in the drinking water starting on Day 3. Mice were monitored for body weight loss, incidence of diarrhea and mortality until end of study on Day 12.
# [6] = test system: normal non-tumor bearing mice; test: as above; format: in vivo
# Experimental: as §1
# [7] = CPT-11 200 mg/kg/dose i.p. once a day for three days, RDP58 none
# [8] = RDP58 2.5 mg/kg/day orally with CPT-11 200 mg/kg/dose
# [9] = RDP58 5 mg/kg/day orally with CPT-11 200 mg/kg/dose
# [10] = RDP58 10 mg/kg/day orally with CPT-11 200 mg/kg/dose
# [11] = CPT-11 100 mg/kg qdx3 with 5.0 mg/kg RDP58 orally
# [12] = RDP58 orally 10 mg/kg in the drinking water
# [13] = RDP58 10 mg/kg orally with 5-FU 100 mg/kg
# [14] = RDP58 10 mg/kg/day orally with 5-FU 100 mg/kg/dose
compound,measurement,setting,value
"O=c1[nH]cc(F)c(=O)[nH]1 [5-FU, 5-Fluorouracil, reference compound]",Toxicity (%) Mortality,"[1]; 5-FU 100 mg/kg/dose daily for two days, RDP58 none",90(9/10) %
same,survival rate,"[1]; mouse, in vivo, 12 days",10%
"CCc1c2c(nc3ccc(OC(=O)N4CCC(N5CCCCC5)CC4)cc13)-c1cc3c(c(=O)n1C2)COC(=O)[C@]3(O)CC [CPT-11, irinotecan, reference compound]",animals that survived the complete treatment regimen,tumor bearing mice; 2×MTD CPT-11 (1200 mg/kg),50%
same,animals died from the CPT-11,tumor bearing mice; CPT-11 at MTD 600 mg/kg,No animals in this treatment group died
same,MTD at 12 days,[2],600 mg/kg
same,Maximum weight loss,[3]; [7],29.4 ± 4.3
same,Toxicity (%) Diarrhea,[3]; [7],97 (29/30)^b %
same,Toxicity (%) Mortality,[3]; [7],73 (22/30) %
same,mice died from CPT-11 treatment,"[3]; control group, CPT-11 200 mg/kg without RDP58",22 of 30
same,reduction in tumor weight,[4]; RDP58 untreated,61%
same,mortality,"[4]; control group, CPT-11 100 mg/kg qdx3 without RDP58",40%
same,LD50 at 12 days,[5],~465 mg/kg
same,LD50,"[6]; CPT-11 i.p. qdx3 alone, until Day 12",approximately 450 mg/kg/total dose
Arg-nL-nL-nL-Arg-nL-nL-nL-Gly-Tyr [RDP58],animals that survived the complete treatment regimen,tumor bearing mice; 2×MTD CPT-11 + 10 mg/ml RDP58,83%
same,maximum total body weight lost compared to RDP58 untreated mice,[3]; 5.0 and 10.0 mg/kg RDP58 with CPT-11 200 mg/kg,reduction
same,survival twelve days after the first injection of CPT-11,"[3]; RDP58 0, 2.5, 5.0 or 10 mg/kg orally with CPT-11 200 mg/kg",dose dependent increase
same,Maximum weight loss,[3]; [8],27.8 ± 3.7
same,Toxicity (%) Diarrhea,[3]; [8],67 (10/15)^b %
same,Toxicity (%) Mortality,[3]; [8],60 (9/15) %
same,Maximum weight loss,[3]; [9],25.6 ± 4.4^a
same,Toxicity (%) Diarrhea,[3]; [9],40 (12/30)^b %
same,Toxicity (%) Mortality,[3]; [9],23 (7/30) %
same,Maximum weight loss,[3]; [10],24.6 ± 1.9^a
same,Toxicity (%) Diarrhea,[3]; [10],33 (5/15)^b %
same,Toxicity (%) Mortality,[3]; [10],7 (1/15) %
same,mice died from CPT-11 treatment,[3]; RDP58 group with CPT-11 200 mg/kg,one of fifteen
same,appearance of diarrhea,[3]; mice receiving RDP58 with CPT-11 200 mg/kg,dose dependent decrease
same,reduction in tumor weight,[4]; with 5.0 mg/kg RDP58 orally,55%
same,survival,[4]; [11],significantly increased
same,treatment related deaths,[4]; [11],No treatment related deaths
same,LD50 of CPT-11 with RDP58,"[6]; 10 mg/kg RDP58, as restated in Example 7",~720 mg/kg total dose
same,LD50 of CPT-11 with administration of RDP58,[6]; [12],approximately 725 mg/kg/total dose
same,increase of CPT-11 LD50 by a factor,[6]; [12],about 1.6 ×
same,animals that had diarrhea,[1]; [13],three of ten
same,total body weight loss,[1]; [13],significant reduction
same,Maximum weight loss,[1]; [14],13.9 ± 3.8b
same,Toxicity (%) Diarrhea,[1]; [14],30(3/10) %
same,Toxicity (%) Mortality,[1]; [14],10(1/10) %
same,survival rate,"[1]; twelve days after 5-FU administration, RDP58 10 mg/kg orally",90%
